Activity calls are given as the source filed them. No stated cut-off is given here; in the data, actives have a measured IC50 and inactives only a lower limit.

For the assay, the target named is Envelope glycoprotein gp160 (Human immunodeficiency virus 1, UniProt Q6QLK5). The experiment in a line: inhibitors of HIV fusion peptide binding, primary screen, biochemical, uHTS, fluorescence dequenching (AID 1986).
Sequence of Envelope glycoprotein gp160 (Q6QLK5 whole entry, the tested form may be a part): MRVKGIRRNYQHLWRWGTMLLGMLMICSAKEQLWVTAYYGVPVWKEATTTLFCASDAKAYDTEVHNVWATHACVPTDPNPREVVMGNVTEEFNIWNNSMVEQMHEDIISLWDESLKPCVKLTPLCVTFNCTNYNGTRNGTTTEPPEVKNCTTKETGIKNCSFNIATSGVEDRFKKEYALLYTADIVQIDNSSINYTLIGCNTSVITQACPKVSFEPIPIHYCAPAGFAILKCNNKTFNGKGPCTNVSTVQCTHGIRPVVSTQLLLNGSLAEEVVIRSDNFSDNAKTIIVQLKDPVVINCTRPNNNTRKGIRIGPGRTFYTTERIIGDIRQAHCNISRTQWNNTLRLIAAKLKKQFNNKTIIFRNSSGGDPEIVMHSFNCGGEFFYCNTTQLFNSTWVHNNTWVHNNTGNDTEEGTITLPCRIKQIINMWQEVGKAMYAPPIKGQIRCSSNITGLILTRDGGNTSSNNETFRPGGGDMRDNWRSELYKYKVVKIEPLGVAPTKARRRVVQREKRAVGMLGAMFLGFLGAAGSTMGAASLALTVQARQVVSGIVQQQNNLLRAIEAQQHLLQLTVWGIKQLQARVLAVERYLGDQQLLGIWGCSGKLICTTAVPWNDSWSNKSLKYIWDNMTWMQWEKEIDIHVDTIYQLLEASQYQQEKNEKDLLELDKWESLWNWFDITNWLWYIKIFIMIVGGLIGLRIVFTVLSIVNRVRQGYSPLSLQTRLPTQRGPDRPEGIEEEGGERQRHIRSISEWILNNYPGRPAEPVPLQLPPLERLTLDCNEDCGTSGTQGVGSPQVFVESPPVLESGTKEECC
Regarding `CC(C)S(=O)(=O)C1=NSC2=NC(=O)/C(=C\c3ccc(-c4cccc(C(=O)O)c4)o3)C(=N)N21`, the 50% inhibitory concentration (IC50) (in general, the point on the concentration scale where inhibition reaches its midpoint) is 18.3 µM (active). The result for `CCCCCC#CCC#CCC#CCC#CCCCC(=O)O` reads 11.9 µM (active). The result for `O=C(COc1ccc(Cl)cc1Cl)Nc1ccc(C(=O)Nc2ccccc2C(=O)O)cc1` reads 9.54 µM (active); that for `COc1cc(NS(=O)(=O)c2ccc(NC(=S)NC(=O)c3sc4ccccc4c3Cl)cc2)nc(OC)n1`, 16.5 µM (active).

Source of the values: ChEMBL document CHEMBL1201862, “PubChem BioAssay data set” (2004).
